{
  "source": "patent US12239627B2",
  "about": "“Method of treating conditions related to the PGI2 receptor” (Arena Pharmaceuticals, Inc., priority 2014, dated 2025)",
  "experiment": "Phase 1 single ascending dose study with healthy subjects (adverse events)",
  "type": "in vivo, human",
  "conditions": "for No. of subjects reporting AEs / No. of subjects with AE Abdominal pain / No. of subjects with AE Cough / No. of subjects with AE Diarrhoea / No. of subjects with AE Dizziness / No. of subjects with AE Flushing / No. of subjects with AE Headache / No. of subjects with AE Jaw pain / No. of subjects with AE Muscle spasm / No. of subjects with AE Nausea / No. of subjects with AE Neck pain / No. of subjects with AE Oropharyngeal pain / No. of subjects with AE Pain in extremity / No. of subjects with AE Photophobia / No. of subjects with AE Vomiting / Number of Subjects Reporting AEs By Most Direct Relationship to Study Treatment: Definitely not related / Number of Subjects Reporting AEs By Most Direct Relationship to Study Treatment: Possibly related / Number of Subjects Reporting AEs By Most Direct Relationship to Study Treatment: Probably not related / Number of Subjects Reporting AEs By Most Direct Relationship to Study Treatment: Probably related: 6 subjects",
  "description": "This study was a phase 1, randomized, double-blind, placebo-controlled study of four cohorts of 8 subjects each (2 subjects were assigned to receive placebo, and 6 to receive Compound 1). Each cohort was assigned to receive a single dose level of blinded study medication in an ascending dose fashion; dosing began at 0.1 mg.\nAll enrolled subjects received a single oral dose of study medication (Compound 1 or placebo). Dose escalation was slowed or discontinued when predefined safety criteria based on peak plasma exposure levels, blood pressure changes, or adverse events (AEs) were met. […] Two lower dose cohorts were added, in which the doses of Compound 1were 0.05 mg and 0.03 respectively.\nAfter each cohort was dosed, the following safety parameters were monitored: vital signs, clinical laboratory tests to include serum chemistry, hematology, and urinalysis, 12-lead ECG, plasma Compound 1 concentration, and AEs. Pharmacokinetic parameters were monitored and calculated for Compound 1.",
  "data": [
    {"smiles": "O=C(O)COC[C@H]1CC[C@H](COC(=O)N(c2ccccc2)c2ccc(Cl)cc2)CC1", "note": "[Compound 1, 2-(((1r,4r)-4-(((4-chlorophenyl)(phenyl)carbamoyloxy)methyl)cyclohexyl)methoxy)acetic acid]", "values": [
      {"measurement": "AEs on which dose escalation was discontinued", "setting": "2nd cohort, single oral dose 0.2 mg", "value": "prolonged nausea and vomiting that was severe in intensity"},
      {"measurement": "Tolerability of the dose", "setting": "single dose 0.1 mg, some subjects experienced nausea, vomiting, headache, and jaw pain", "value": "tolerated"},
      {"measurement": "Tolerability of the dose", "setting": "single dose 0.2 mg", "value": "Intolerable AEs"},
      {"measurement": "No. of subjects reporting AEs", "setting": "single oral dose 0.03 mg", "value": 2, "unit": "subjects"},
      {"measurement": "No. of subjects with AE Abdominal pain", "setting": "single oral dose 0.03 mg", "value": 0, "unit": "subjects"},
      {"measurement": "No. of subjects with AE Cough", "setting": "single oral dose 0.03 mg", "value": 0, "unit": "subjects"},
      {"measurement": "No. of subjects with AE Diarrhoea", "setting": "single oral dose 0.03 mg", "value": 0, "unit": "subjects"},
      {"measurement": "No. of subjects with AE Dizziness", "setting": "single oral dose 0.03 mg", "value": 0, "unit": "subjects"},
      {"measurement": "No. of subjects with AE Flushing", "setting": "single oral dose 0.03 mg", "value": 0, "unit": "subjects"},
      {"measurement": "No. of subjects with AE Headache", "setting": "single oral dose 0.03 mg", "value": 2, "unit": "subjects"},
      {"measurement": "No. of subjects with AE Jaw pain", "setting": "single oral dose 0.03 mg", "value": 0, "unit": "subjects"},
      {"measurement": "No. of subjects with AE Muscle spasm", "setting": "single oral dose 0.03 mg", "value": 0, "unit": "subjects"},
      {"measurement": "No. of subjects with AE Nausea", "setting": "single oral dose 0.03 mg", "value": 0, "unit": "subjects"},
      {"measurement": "No. of subjects with AE Neck pain", "setting": "single oral dose 0.03 mg", "value": 0, "unit": "subjects"},
      {"measurement": "No. of subjects with AE Oropharyngeal pain", "setting": "single oral dose 0.03 mg", "value": 0, "unit": "subjects"},
      {"measurement": "No. of subjects with AE Pain in extremity", "setting": "single oral dose 0.03 mg", "value": 0, "unit": "subjects"},
      {"measurement": "No. of subjects with AE Photophobia", "setting": "single oral dose 0.03 mg", "value": 0, "unit": "subjects"},
      {"measurement": "No. of subjects with AE Vomiting", "setting": "single oral dose 0.03 mg", "value": 0, "unit": "subjects"},
      {"measurement": "Number of Subjects Reporting AEs By Most Direct Relationship to Study Treatment: Definitely not related", "setting": "single oral dose 0.03 mg", "value": 0, "unit": "subjects"},
      {"measurement": "Number of Subjects Reporting AEs By Most Direct Relationship to Study Treatment: Possibly related", "setting": "single oral dose 0.03 mg", "value": 2, "unit": "subjects"},
      {"measurement": "Number of Subjects Reporting AEs By Most Direct Relationship to Study Treatment: Probably not related", "setting": "single oral dose 0.03 mg", "value": 0, "unit": "subjects"},
      {"measurement": "Number of Subjects Reporting AEs By Most Direct Relationship to Study Treatment: Probably related", "setting": "single oral dose 0.03 mg", "value": 0, "unit": "subjects"},
      {"measurement": "No. of subjects reporting AEs", "setting": "single oral dose 0.05 mg", "value": 5, "unit": "subjects"},
      {"measurement": "No. of subjects with AE Abdominal pain", "setting": "single oral dose 0.05 mg", "value": 1, "unit": "subjects"},
      {"measurement": "No. of subjects with AE Cough", "setting": "single oral dose 0.05 mg", "value": 0, "unit": "subjects"},
      {"measurement": "No. of subjects with AE Diarrhoea", "setting": "single oral dose 0.05 mg", "value": 0, "unit": "subjects"},
      {"measurement": "No. of subjects with AE Dizziness", "setting": "single oral dose 0.05 mg", "value": 0, "unit": "subjects"},
      {"measurement": "No. of subjects with AE Flushing", "setting": "single oral dose 0.05 mg", "value": 1, "unit": "subjects"},
      {"measurement": "No. of subjects with AE Headache", "setting": "single oral dose 0.05 mg", "value": 5, "unit": "subjects"},
      {"measurement": "No. of subjects with AE Jaw pain", "setting": "single oral dose 0.05 mg", "value": 2, "unit": "subjects"},
      {"measurement": "No. of subjects with AE Muscle spasm", "setting": "single oral dose 0.05 mg", "value": 0, "unit": "subjects"},
      {"measurement": "No. of subjects with AE Nausea", "setting": "single oral dose 0.05 mg", "value": 1, "unit": "subjects"},
      {"measurement": "No. of subjects with AE Neck pain", "setting": "single oral dose 0.05 mg", "value": 0, "unit": "subjects"},
      {"measurement": "No. of subjects with AE Oropharyngeal pain", "setting": "single oral dose 0.05 mg", "value": 0, "unit": "subjects"},
      {"measurement": "No. of subjects with AE Pain in extremity", "setting": "single oral dose 0.05 mg", "value": 0, "unit": "subjects"},
      {"measurement": "No. of subjects with AE Photophobia", "setting": "single oral dose 0.05 mg", "value": 1, "unit": "subjects"},
      {"measurement": "No. of subjects with AE Vomiting", "setting": "single oral dose 0.05 mg", "value": 0, "unit": "subjects"},
      {"measurement": "Number of Subjects Reporting AEs By Most Direct Relationship to Study Treatment: Definitely not related", "setting": "single oral dose 0.05 mg", "value": 0, "unit": "subjects"},
      {"measurement": "Number of Subjects Reporting AEs By Most Direct Relationship to Study Treatment: Possibly related", "setting": "single oral dose 0.05 mg", "value": 5, "unit": "subjects"},
      {"measurement": "Number of Subjects Reporting AEs By Most Direct Relationship to Study Treatment: Probably not related", "setting": "single oral dose 0.05 mg", "value": 0, "unit": "subjects"},
      {"measurement": "Number of Subjects Reporting AEs By Most Direct Relationship to Study Treatment: Probably related", "setting": "single oral dose 0.05 mg", "value": 0, "unit": "subjects"},
      {"measurement": "No. of subjects reporting AEs", "setting": "single oral dose 0.1 mg", "value": 6, "unit": "subjects"},
      {"measurement": "No. of subjects with AE Abdominal pain", "setting": "single oral dose 0.1 mg", "value": 1, "unit": "subjects"},
      {"measurement": "No. of subjects with AE Cough", "setting": "single oral dose 0.1 mg", "value": 0, "unit": "subjects"},
      {"measurement": "No. of subjects with AE Diarrhoea", "setting": "single oral dose 0.1 mg", "value": 0, "unit": "subjects"},
      {"measurement": "No. of subjects with AE Dizziness", "setting": "single oral dose 0.1 mg", "value": 1, "unit": "subjects"},
      {"measurement": "No. of subjects with AE Flushing", "setting": "single oral dose 0.1 mg", "value": 1, "unit": "subjects"},
      {"measurement": "No. of subjects with AE Headache", "setting": "single oral dose 0.1 mg", "value": 5, "unit": "subjects"},
      {"measurement": "No. of subjects with AE Jaw pain", "setting": "single oral dose 0.1 mg", "value": 3, "unit": "subjects"},
      {"measurement": "No. of subjects with AE Muscle spasm", "setting": "single oral dose 0.1 mg", "value": 0, "unit": "subjects"},
      {"measurement": "No. of subjects with AE Nausea", "setting": "single oral dose 0.1 mg", "value": 2, "unit": "subjects"},
      {"measurement": "No. of subjects with AE Neck pain", "setting": "single oral dose 0.1 mg", "value": 1, "unit": "subjects"},
      {"measurement": "No. of subjects with AE Oropharyngeal pain", "setting": "single oral dose 0.1 mg", "value": 0, "unit": "subjects"},
      {"measurement": "No. of subjects with AE Pain in extremity", "setting": "single oral dose 0.1 mg", "value": 0, "unit": "subjects"},
      {"measurement": "No. of subjects with AE Photophobia", "setting": "single oral dose 0.1 mg", "value": 0, "unit": "subjects"},
      {"measurement": "No. of subjects with AE Vomiting", "setting": "single oral dose 0.1 mg", "value": 2, "unit": "subjects"},
      {"measurement": "Number of Subjects Reporting AEs By Most Direct Relationship to Study Treatment: Definitely not related", "setting": "single oral dose 0.1 mg", "value": 1, "unit": "subjects"},
      {"measurement": "Number of Subjects Reporting AEs By Most Direct Relationship to Study Treatment: Possibly related", "setting": "single oral dose 0.1 mg", "value": 4, "unit": "subjects"},
      {"measurement": "Number of Subjects Reporting AEs By Most Direct Relationship to Study Treatment: Probably not related", "setting": "single oral dose 0.1 mg", "value": 0, "unit": "subjects"},
      {"measurement": "Number of Subjects Reporting AEs By Most Direct Relationship to Study Treatment: Probably related", "setting": "single oral dose 0.1 mg", "value": 1, "unit": "subjects"},
      {"measurement": "No. of subjects reporting AEs", "setting": "single oral dose 0.2 mg", "value": 6, "unit": "subjects"},
      {"measurement": "No. of subjects with AE Abdominal pain", "setting": "single oral dose 0.2 mg", "value": 0, "unit": "subjects"},
      {"measurement": "No. of subjects with AE Cough", "setting": "single oral dose 0.2 mg", "value": 0, "unit": "subjects"},
      {"measurement": "No. of subjects with AE Diarrhoea", "setting": "single oral dose 0.2 mg", "value": 1, "unit": "subjects"},
      {"measurement": "No. of subjects with AE Dizziness", "setting": "single oral dose 0.2 mg", "value": 0, "unit": "subjects"},
      {"measurement": "No. of subjects with AE Flushing", "setting": "single oral dose 0.2 mg", "value": 2, "unit": "subjects"},
      {"measurement": "No. of subjects with AE Headache", "setting": "single oral dose 0.2 mg", "value": 5, "unit": "subjects"},
      {"measurement": "No. of subjects with AE Jaw pain", "setting": "single oral dose 0.2 mg", "value": 1, "unit": "subjects"},
      {"measurement": "No. of subjects with AE Muscle spasm", "setting": "single oral dose 0.2 mg", "value": 1, "unit": "subjects"},
      {"measurement": "No. of subjects with AE Nausea", "setting": "single oral dose 0.2 mg", "value": 3, "unit": "subjects"},
      {"measurement": "No. of subjects with AE Neck pain", "setting": "single oral dose 0.2 mg", "value": 0, "unit": "subjects"},
      {"measurement": "No. of subjects with AE Oropharyngeal pain", "setting": "single oral dose 0.2 mg", "value": 1, "unit": "subjects"},
      {"measurement": "No. of subjects with AE Pain in extremity", "setting": "single oral dose 0.2 mg", "value": 1, "unit": "subjects"},
      {"measurement": "No. of subjects with AE Photophobia", "setting": "single oral dose 0.2 mg", "value": 0, "unit": "subjects"},
      {"measurement": "No. of subjects with AE Vomiting", "setting": "single oral dose 0.2 mg", "value": 6, "unit": "subjects"},
      {"measurement": "Number of Subjects Reporting AEs By Most Direct Relationship to Study Treatment: Definitely not related", "setting": "single oral dose 0.2 mg", "value": 0, "unit": "subjects"},
      {"measurement": "Number of Subjects Reporting AEs By Most Direct Relationship to Study Treatment: Possibly related", "setting": "single oral dose 0.2 mg", "value": 0, "unit": "subjects"},
      {"measurement": "Number of Subjects Reporting AEs By Most Direct Relationship to Study Treatment: Probably not related", "setting": "single oral dose 0.2 mg", "value": 0, "unit": "subjects"},
      {"measurement": "Number of Subjects Reporting AEs By Most Direct Relationship to Study Treatment: Probably related", "setting": "single oral dose 0.2 mg", "value": 6, "unit": "subjects"}
    ]}
  ]
}
